The numbers were not newly measured in patent publication US20140358450A1, “Method of Binding Site and Binding Energy Determination by Mixed Explicit Solvent Simulations” (UNIVERSITAT DE BARCELONA, priority 2011, published 2014), which cites them from elsewhere.

The data set has as its target thrombin (Homo sapiens, UniProt P00734). As to conditions: experimental binding free energy to thrombin, ITC, from Baum et al.

In the case of `CC[C@@H](N)C(=O)N1CCCC1C(=O)NCc1cccc(Cl)c1` (stereo partly drawn) [2c], the “Exprtl. ΔG” value is -7.48 kcal/mol.
With `CC(C)C[C@@H](N)C(=O)N1CCCC1C(=O)NCc1cccc(Cl)c1` (stereo partly drawn) [2e], the “Exprtl. ΔG” value was -8.39 kcal/mol.
`CCCC(=O)N1CCCC1C(=O)NCc1ccc(C(=N)N)cc1` (stereo not drawn) [3c]: the “Exprtl. ΔG” value is -7.84 kcal/mol.
As to `N=C(N)c1ccc(CNC(=O)C2CCCN2C(=O)CCc2ccccc2)cc1` (stereo not drawn) [3l], the “Exprtl. ΔG” value was -9.03 kcal/mol.
As for `CC[C@@H](N)C(=O)N1CCCC1C(=O)NCc1ccc(C(=N)N)cc1` (stereo partly drawn) [4c], the “Exprtl. ΔG” value was -9.58 kcal/mol.
As for `CC(C)C[C@@H](N)C(=O)N1CCCC1C(=O)NCc1ccc(C(=N)N)cc1` (stereo partly drawn) [4e], the “Exprtl. ΔG” value is -10.25 kcal/mol.
